Laboratory results as given in patent publication US12479847B2 (DANA-FARBER CANCER INSTITUTE, INC., priority 2019, dated 2025).

Tests used:
Experiment in all cases: KINOMEscan (ScanMAX) kinase profiling
Type in all cases: binding
panel of 468 kinases [1] = biological target: T1, panel of 468 kinases (Homo sapiens, UniProt P36888, D835H); conditions: FLT3(D835H); 1 μM; read-out: % control
T1 construct: purchased KINOMEscan (ScanMAX) service
T1 sequence (P36888 27-993 D835H): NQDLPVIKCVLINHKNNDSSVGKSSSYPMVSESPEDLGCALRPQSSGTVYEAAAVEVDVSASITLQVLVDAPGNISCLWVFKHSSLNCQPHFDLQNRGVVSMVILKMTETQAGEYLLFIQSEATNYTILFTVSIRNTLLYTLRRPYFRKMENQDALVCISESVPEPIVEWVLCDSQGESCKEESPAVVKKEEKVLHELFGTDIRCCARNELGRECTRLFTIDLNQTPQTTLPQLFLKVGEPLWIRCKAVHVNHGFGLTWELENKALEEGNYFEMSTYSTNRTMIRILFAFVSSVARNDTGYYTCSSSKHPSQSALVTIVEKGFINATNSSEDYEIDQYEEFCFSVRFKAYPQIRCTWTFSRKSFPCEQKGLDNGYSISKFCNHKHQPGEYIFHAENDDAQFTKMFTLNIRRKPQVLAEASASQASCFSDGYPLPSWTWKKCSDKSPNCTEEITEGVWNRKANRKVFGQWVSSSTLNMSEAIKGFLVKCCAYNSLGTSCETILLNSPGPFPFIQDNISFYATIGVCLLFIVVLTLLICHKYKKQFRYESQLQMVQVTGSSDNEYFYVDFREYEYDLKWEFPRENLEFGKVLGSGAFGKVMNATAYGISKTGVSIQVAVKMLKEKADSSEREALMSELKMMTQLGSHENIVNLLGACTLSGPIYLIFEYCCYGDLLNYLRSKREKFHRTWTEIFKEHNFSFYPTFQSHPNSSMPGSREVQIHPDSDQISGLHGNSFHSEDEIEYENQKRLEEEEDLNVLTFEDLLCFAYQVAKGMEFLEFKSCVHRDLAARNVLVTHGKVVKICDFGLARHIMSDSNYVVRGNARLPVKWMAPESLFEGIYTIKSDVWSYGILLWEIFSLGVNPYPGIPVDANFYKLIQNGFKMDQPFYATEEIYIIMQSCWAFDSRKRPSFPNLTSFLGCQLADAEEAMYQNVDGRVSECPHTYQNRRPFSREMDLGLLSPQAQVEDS

panel of 468 kinases [2] = biological target: T2, panel of 468 kinases (Homo sapiens, UniProt Q02750); conditions: MEK1; 1 μM; read-out: % control
T2 construct: purchased KINOMEscan (ScanMAX) service

panel of 468 kinases [3] = biological target: T3, panel of 468 kinases (Homo sapiens, UniProt Q92772); conditions: CDKL2; 1 μM; read-out: % control
T3 construct: purchased KINOMEscan (ScanMAX) service
T3 sequence (Q92772 1-493): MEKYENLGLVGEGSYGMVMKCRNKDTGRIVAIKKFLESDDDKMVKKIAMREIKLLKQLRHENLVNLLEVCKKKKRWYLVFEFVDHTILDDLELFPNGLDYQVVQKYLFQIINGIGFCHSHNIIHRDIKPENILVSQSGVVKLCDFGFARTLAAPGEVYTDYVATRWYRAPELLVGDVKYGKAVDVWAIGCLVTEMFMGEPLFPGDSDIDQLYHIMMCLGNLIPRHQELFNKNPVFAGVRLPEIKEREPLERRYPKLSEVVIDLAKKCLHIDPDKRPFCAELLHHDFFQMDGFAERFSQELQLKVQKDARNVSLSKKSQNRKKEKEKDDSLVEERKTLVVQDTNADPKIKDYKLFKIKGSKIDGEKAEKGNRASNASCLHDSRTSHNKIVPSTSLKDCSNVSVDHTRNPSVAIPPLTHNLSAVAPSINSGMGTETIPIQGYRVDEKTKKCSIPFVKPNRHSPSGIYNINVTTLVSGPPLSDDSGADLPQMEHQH

panel of 468 kinases [4] = biological target: T4, panel of 468 kinases (Homo sapiens, UniProt P10721, T670I/V559D); conditions: KIT(V559D,T670I); 1 μM; read-out: % control
T4 construct: purchased KINOMEscan (ScanMAX) service
T4 sequence (P10721 26-976 V559D/T670I): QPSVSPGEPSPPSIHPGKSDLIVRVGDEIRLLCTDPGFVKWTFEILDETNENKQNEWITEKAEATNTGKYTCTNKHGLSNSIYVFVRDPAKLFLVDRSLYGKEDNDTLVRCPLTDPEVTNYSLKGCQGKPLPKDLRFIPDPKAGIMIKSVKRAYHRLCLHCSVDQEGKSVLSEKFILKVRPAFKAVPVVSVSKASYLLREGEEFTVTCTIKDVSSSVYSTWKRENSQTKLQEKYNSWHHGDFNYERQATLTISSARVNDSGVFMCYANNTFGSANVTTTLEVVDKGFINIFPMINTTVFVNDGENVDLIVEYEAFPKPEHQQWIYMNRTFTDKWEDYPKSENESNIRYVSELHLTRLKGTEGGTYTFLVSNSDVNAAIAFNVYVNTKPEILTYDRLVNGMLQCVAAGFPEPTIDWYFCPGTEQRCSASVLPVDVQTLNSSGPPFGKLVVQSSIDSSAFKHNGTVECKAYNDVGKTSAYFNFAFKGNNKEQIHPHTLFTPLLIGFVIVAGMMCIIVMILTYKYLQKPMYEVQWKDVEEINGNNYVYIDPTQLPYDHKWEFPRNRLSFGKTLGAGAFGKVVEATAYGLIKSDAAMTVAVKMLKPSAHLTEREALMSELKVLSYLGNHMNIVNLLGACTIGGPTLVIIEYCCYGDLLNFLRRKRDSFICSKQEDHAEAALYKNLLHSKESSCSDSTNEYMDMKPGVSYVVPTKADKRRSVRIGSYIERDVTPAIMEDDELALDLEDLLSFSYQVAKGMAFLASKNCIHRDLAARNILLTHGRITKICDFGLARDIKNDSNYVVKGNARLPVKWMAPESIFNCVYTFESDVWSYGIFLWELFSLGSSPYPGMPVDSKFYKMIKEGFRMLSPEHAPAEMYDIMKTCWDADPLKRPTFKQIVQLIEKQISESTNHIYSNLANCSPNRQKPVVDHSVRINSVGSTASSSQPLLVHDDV

panel of 468 kinases [5] = biological target: T5, panel of 468 kinases (Homo sapiens, UniProt O43353); conditions: RIPK2; 1 μM; read-out: % control
T5 construct: purchased KINOMEscan (ScanMAX) service
T5 sequence (O43353 whole entry): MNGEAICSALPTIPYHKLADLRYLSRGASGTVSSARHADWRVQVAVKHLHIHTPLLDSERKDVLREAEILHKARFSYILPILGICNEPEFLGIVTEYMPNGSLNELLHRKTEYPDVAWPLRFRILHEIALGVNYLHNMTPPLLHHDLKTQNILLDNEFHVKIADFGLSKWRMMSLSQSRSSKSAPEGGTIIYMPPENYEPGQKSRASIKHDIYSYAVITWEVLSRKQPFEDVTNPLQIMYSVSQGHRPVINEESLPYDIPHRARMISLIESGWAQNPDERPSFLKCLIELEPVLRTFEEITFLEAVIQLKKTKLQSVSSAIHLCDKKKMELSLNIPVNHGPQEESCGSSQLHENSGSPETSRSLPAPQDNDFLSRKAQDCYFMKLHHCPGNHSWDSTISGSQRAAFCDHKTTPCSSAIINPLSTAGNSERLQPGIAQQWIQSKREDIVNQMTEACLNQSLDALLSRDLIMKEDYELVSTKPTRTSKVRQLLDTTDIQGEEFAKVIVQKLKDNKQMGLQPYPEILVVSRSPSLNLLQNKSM

panel of 468 kinases [6] = biological target: T6, panel of 468 kinases (Homo sapiens, UniProt O43293); conditions: DAPK3; 1 μM; read-out: % control
T6 construct: purchased KINOMEscan (ScanMAX) service
T6 sequence (O43293 whole entry): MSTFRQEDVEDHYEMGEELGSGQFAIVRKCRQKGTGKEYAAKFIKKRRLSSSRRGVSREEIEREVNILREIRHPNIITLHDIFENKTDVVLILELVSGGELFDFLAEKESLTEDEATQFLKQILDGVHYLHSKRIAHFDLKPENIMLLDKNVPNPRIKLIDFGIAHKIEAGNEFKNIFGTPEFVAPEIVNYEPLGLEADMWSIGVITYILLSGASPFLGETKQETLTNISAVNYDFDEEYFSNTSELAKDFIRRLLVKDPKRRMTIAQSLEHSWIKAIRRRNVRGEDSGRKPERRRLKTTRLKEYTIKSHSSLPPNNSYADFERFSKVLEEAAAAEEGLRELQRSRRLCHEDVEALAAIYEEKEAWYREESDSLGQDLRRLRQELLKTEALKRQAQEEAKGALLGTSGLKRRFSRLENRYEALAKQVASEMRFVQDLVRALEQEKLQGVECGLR

panel of 468 kinases [7] = biological target: T7, panel of 468 kinases (Homo sapiens, UniProt P06239); conditions: LCK; 1 μM; read-out: % control
T7 construct: purchased KINOMEscan (ScanMAX) service
T7 sequence (P06239 whole entry): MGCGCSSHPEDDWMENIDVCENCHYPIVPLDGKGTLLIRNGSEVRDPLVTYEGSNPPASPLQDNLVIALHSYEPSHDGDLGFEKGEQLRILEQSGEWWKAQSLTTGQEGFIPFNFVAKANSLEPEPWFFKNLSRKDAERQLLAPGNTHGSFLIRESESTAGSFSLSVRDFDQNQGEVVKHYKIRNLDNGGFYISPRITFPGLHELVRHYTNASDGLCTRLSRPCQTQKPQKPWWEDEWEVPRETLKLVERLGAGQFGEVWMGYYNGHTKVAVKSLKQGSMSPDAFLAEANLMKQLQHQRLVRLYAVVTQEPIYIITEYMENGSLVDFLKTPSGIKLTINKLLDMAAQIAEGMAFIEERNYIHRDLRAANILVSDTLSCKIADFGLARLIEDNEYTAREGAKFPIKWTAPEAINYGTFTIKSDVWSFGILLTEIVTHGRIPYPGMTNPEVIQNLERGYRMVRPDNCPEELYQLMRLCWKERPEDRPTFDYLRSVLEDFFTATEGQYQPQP

panel of 468 kinases [8] = biological target: T8, panel of 468 kinases (Homo sapiens, UniProt P07949, M918T); conditions: RET(M918T); 1 μM; read-out: % control
T8 construct: purchased KINOMEscan (ScanMAX) service
T8 sequence (P07949 29-1114 M918T): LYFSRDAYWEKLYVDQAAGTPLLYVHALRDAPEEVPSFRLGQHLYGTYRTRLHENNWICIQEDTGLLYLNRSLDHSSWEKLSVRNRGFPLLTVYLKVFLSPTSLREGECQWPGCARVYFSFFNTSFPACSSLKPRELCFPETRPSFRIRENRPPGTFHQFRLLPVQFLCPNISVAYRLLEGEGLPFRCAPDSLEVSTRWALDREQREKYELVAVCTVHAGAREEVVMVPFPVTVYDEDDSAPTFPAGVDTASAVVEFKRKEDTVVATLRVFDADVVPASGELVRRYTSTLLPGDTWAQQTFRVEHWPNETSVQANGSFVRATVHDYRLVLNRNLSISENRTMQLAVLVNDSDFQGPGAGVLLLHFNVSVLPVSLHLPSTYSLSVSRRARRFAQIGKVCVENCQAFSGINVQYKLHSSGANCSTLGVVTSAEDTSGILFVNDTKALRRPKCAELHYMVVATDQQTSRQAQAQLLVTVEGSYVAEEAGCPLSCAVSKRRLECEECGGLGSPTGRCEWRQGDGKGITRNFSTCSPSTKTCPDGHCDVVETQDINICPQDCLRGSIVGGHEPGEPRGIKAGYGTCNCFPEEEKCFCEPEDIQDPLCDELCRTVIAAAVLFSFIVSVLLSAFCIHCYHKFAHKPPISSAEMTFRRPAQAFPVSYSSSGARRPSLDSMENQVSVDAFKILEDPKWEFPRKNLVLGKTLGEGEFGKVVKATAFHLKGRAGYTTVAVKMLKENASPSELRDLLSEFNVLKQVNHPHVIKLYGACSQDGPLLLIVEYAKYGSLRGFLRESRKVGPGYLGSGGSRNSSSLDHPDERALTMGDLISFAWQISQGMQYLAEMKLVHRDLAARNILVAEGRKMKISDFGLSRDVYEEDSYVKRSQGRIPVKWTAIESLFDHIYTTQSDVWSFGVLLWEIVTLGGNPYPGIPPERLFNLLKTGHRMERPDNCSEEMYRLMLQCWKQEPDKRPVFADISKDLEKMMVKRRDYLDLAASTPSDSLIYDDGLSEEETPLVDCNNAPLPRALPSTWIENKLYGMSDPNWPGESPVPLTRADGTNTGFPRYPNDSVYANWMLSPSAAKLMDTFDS

panel of 468 kinases [9] = biological target: T9, panel of 468 kinases (Homo sapiens, UniProt Q8IVW4); conditions: CDKL3; 1 μM; read-out: % control
T9 construct: purchased KINOMEscan (ScanMAX) service
T9 sequence (Q8IVW4 whole entry): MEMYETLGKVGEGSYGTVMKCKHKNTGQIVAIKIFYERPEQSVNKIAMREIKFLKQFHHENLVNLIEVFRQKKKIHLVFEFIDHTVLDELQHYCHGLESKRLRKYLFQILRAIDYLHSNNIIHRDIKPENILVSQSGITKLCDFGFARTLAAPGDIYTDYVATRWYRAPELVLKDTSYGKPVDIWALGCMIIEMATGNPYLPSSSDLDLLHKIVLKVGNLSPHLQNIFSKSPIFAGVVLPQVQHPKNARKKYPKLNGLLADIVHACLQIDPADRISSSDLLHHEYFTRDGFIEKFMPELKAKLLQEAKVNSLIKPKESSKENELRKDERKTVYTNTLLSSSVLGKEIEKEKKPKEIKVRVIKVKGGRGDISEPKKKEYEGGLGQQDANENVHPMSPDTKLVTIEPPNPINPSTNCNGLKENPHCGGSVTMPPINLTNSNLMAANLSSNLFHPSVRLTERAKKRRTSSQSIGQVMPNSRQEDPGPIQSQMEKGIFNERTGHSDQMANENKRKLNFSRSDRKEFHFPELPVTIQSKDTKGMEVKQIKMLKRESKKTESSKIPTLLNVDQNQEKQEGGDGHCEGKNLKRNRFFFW

panel of 468 kinases [10] = biological target: T10, panel of 468 kinases (Homo sapiens, UniProt P22455); conditions: FGFR4; 1 μM; read-out: % control
T10 construct: purchased KINOMEscan (ScanMAX) service
T10 sequence (P22455 22-802): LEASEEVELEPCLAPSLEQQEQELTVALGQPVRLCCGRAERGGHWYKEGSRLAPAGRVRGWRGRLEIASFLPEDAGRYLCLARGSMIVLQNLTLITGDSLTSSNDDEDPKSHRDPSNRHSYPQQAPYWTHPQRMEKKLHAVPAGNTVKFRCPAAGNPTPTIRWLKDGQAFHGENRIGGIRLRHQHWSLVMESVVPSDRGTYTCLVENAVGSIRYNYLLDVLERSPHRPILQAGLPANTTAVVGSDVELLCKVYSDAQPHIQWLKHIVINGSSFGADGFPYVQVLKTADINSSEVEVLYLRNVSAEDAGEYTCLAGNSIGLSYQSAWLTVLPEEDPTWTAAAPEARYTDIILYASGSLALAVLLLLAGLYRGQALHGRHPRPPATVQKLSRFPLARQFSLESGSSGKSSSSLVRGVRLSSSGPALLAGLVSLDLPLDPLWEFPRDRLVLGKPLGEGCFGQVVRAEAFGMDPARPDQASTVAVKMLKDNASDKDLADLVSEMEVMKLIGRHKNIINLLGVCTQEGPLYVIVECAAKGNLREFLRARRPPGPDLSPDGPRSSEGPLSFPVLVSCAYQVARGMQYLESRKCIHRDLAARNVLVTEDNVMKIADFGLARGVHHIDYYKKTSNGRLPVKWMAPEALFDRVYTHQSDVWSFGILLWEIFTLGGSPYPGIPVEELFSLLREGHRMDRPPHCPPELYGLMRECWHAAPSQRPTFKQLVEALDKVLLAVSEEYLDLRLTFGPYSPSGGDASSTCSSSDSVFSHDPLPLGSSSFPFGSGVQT

panel of 468 kinases [11] = biological target: T11, panel of 468 kinases (Homo sapiens, UniProt P78356); conditions: PIP5K2B; 1 μM; read-out: % control
T11 construct: purchased KINOMEscan (ScanMAX) service
T11 sequence (P78356 1-416): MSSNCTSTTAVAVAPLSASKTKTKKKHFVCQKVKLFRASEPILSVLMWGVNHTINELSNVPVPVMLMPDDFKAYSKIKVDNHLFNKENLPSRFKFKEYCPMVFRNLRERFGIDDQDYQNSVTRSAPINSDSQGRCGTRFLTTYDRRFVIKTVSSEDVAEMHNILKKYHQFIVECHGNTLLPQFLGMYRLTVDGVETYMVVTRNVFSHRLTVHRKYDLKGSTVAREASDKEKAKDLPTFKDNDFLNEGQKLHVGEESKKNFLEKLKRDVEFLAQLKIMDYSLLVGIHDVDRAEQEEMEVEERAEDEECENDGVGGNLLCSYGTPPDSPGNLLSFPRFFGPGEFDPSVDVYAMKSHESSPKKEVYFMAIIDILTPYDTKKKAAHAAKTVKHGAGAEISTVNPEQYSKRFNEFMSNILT

Structure (SMILES)	remaining binding at 1 µM (panel of 468 kinases [1])	remaining binding at 1 µM (panel of 468 kinases [2])	remaining binding at 1 µM (panel of 468 kinases [3])	remaining binding at 1 µM (panel of 468 kinases [4])	remaining binding at 1 µM (panel of 468 kinases [5])	remaining binding at 1 µM (panel of 468 kinases [6])	remaining binding at 1 µM (panel of 468 kinases [7])	remaining binding at 1 µM (panel of 468 kinases [8])	remaining binding at 1 µM (panel of 468 kinases [9])	remaining binding at 1 µM (panel of 468 kinases [10])	remaining binding at 1 µM (panel of 468 kinases [11])
CNc1nc(Nc2ccc(S(=O)(=O)N3CCC(N4CCOCC4)CC3)cc2OC)nc2[nH]cc(Cl)c12 [Compound 12, 5-chloro-N2-(2-methoxy-4-((4-morpholinopiperidin-1-yl)sulfonyl)phenyl)-N4-methyl-7H-pyrrolo[2,3-d]pyrimidine-2,4-diamine]	100%	99%	100%	89%	100%	35%	91%	100%	100%	90%	100%
CNc1nc(Nc2ccc(C(=O)N3CCC(N4CCOCC4)CC3)c3c2OCO3)nc2[nH]cc(Cl)c12 [Compound 75, (7-((5-chloro-4-(methylamino)-7H-pyrrolo[2,3-d]pyrimidin-2-yl)amino)benzo[d][1,3]dioxol-4-yl)(4-morpholinopiperidin-1-yl)methanone]	37%	98%	100%	62%	100%	16%	100%	90%	100%	100%	97%
CNc1nc(Nc2ccc(P3(=O)CCN(C4CCOCC4)CC3)cc2OC)nc2[nH]cc(Cl)c12 [Compound 77, 4-(4-((5-chloro-4-(methylamino)-7H-pyrrolo[2,3-d]pyrimidin-2-yl)amino)-3-methoxyphenyl)-1-(tetrahydro-2H-pyran-4-yl)-1,4-azaphosphinane 4-oxide]	84%	96%	100%	100%	100%	9.9%	100%	94%	100%	98%	100%
